Our source for the inhibition of growth, Ki and MIC values is ChEMBL document CHEMBL4261651, “Probing the ligand preferences of the three types of bacterial pantothenate kinase” (Bioorg Med Chem, 2018).

In brackets after ≈: the same amount, converted by molar mass.

In test [1] the test system is Staphylococcus aureus. Briefly: Growth inhibition of Staphylococcus aureus ATCC 29213 at 860 uM after 16 hrs by broth microdilution method. It counts as functional. The settings on record: ATCC 29213, 16 h, read-out: GI. A general note: In broth dilution the organism is exposed to a series of concentrations in liquid medium.
Test [2] addresses T1, Type III pantothenate kinase (Bacillus anthracis, UniProt Q81VX4).
T1 sequence (Q81VX4 whole entry): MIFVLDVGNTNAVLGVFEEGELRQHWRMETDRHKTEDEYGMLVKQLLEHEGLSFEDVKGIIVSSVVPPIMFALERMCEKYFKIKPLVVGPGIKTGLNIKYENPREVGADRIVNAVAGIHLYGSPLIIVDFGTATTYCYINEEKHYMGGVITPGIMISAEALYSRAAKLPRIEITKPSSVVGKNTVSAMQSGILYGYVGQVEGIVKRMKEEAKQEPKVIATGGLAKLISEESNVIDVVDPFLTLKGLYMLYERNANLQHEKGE
Briefly: Inhibition of Bacillus anthracis pantothenate kinase 3.

Test [3] relates to Staphylococcus aureus. Briefly: Growth inhibition of Staphylococcus aureus ATCC 29213 at 1000 uM after 16 hrs by broth microdilution method. It counts as functional. The settings on record: ATCC 29213, 16 h, read-out: GI.
The subject of test [4] is Staphylococcus aureus. Briefly: Growth inhibition of Staphylococcus aureus ATCC 29213 at 1230 uM after 16 hrs by broth microdilution method. It counts as functional. The settings on record: ATCC 29213, 16 h, read-out: GI.
In test [5] the test system is Staphylococcus aureus. The experiment in a line: Antibacterial activity against Staphylococcus aureus ATCC 29213 after 16 hrs by broth microdilution method. It counts as functional. The settings on record: ATCC 29213, 16 h.
Test [6] relates to Staphylococcus aureus. The experiment in a line: Growth inhibition of Staphylococcus aureus ATCC 29213 at 1540 uM after 16 hrs by broth microdilution method. It counts as functional. The settings on record: ATCC 29213, 16 h, read-out: GI.
Test [7] deals with Staphylococcus aureus. Briefly: Growth inhibition of Staphylococcus aureus ATCC 29213 at 550 uM after 16 hrs by broth microdilution method. It counts as functional. The settings on record: ATCC 29213, 16 h, read-out: GI.
For test [8], the system named is Staphylococcus aureus. The experiment in a line: Growth inhibition of Staphylococcus aureus ATCC 29213 at 820 uM after 16 hrs by broth microdilution method. It counts as functional. The settings on record: ATCC 29213, 16 h, read-out: GI.

As for `CCCCCn1cc(CCNC(=O)[C@H](O)C(C)(C)CO)nn1`, the inhibition of growth at 860 µM with Staphylococcus aureus [1] stood at 99%.

For `Nc1ncnc2c1ncn2[C@@H]1O[C@H](Cn2cc(CO[C@@H]3O[C@H](CO)[C@H](O)[C@H](O)[C@H]3O)nn2)[C@@H](O)[C@H]1O`, the Ki in test [2] was 164 µM.

`COC(=O)CCCNC(=O)[C@H](O)C(C)(C)CO`: the inhibition of growth at 1000 µM in the test on Staphylococcus aureus [3] stood at 16%.

With `O=C(O)CCNC(=O)[C@H](O)CCO`, in the test with Staphylococcus aureus [4], the inhibition of growth at 1230 µM is 9%.

Turning to `COC(=O)CCNC(=O)[C@H](O)C(C)(C)CO`, the inhibition of growth at 1000 µM in the test with Staphylococcus aureus [3] turned out to be 15%.

`CCCCCNC(=O)CCNC(=O)[C@H](O)C(C)(C)CO`: 14 µM (≈ 4.04 µg/mL) was the least that counted as inhibitory with Staphylococcus aureus [5] (MIC).

For the compound `CC(C)(CO)[C@@H](O)C(=O)NCc1cn(CCc2ccccc2)nn1`, the inhibition of growth at 1540 µM in the test on Staphylococcus aureus [6] was 2%.

Turning to `CCCCn1cc(CCNC(=O)[C@H](O)C(C)(C)CO)nn1`, the inhibition of growth at 550 µM with Staphylococcus aureus [7] stood at 86%.

Regarding `CCCCCc1cn(CCNC(=O)[C@H](O)C(C)(C)CO)nn1`, the inhibition of growth at 820 µM with Staphylococcus aureus [8] worked out at 72%.

On to `CCCCCn1cc(CNC(=O)[C@H](O)C(C)(C)CO)nn1`, for which, in the test with Staphylococcus aureus [1], the inhibition of growth at 860 µM was -5%.

For the compound `CC(C)(CO)[C@@H](O)C(=O)NCC(=O)O`, the inhibition of growth at 1000 µM in the test on Staphylococcus aureus [3] was found to be 18%.

`CCCc1cn(CCCNC(=O)[C@H](O)C(C)(C)CO)nn1`: in the test on Staphylococcus aureus [1], the inhibition of growth at 860 µM is -13%.

As to `COC(=O)CNC(=O)[C@H](O)C(C)(C)CO`, the inhibition of growth at 1000 µM in the test on Staphylococcus aureus [3] was 84%.

With `CC(C)(CO)[C@@H](O)C(=O)NCCCC(=O)O` [HOPANTENIC ACID], the inhibition of growth at 1000 µM in the test with Staphylococcus aureus [3] was found to be 87%.

Broadly, the Ki is a dissociation constant, usually derived from enzyme kinetics or from competition with a known ligand. Low values mean higher affinity, high ones lower affinity. A word on the MIC: it is the lowest concentration that inhibits growth of the organism. A lower MIC goes with a more susceptible organism.
